For one data set, the system named is C. elegans. The data set can be described thus: C. elegans lifespan assays (liquid and plate). The conditions noted are these: for ILS at 60 µM / ILS at 66 µM: Caenorhabditis elegans; for O = Life span- extending scores in worms: score scale 0 to 2, 4 to 6 independent trials; for M = Lifespan-extending scores in worms: summary score. It is filed as in vivo, Caenorhabditis elegans.

Another data set deals with FOXO3. The data set can be described thus: FOXO3 siRNA knockdown: dependency for H2O2-resistance. The format is cell-based, human. On the procedure:
For qPCR analysis, WI-38 cells were treated with small molecules (at 10 μM) (biological quadruplicates) for 24 hrs and processed for RNA isolation and reverse transcription (RT) with the Cells-to-Ct Kit (Life Technologies), following manufacturer's instructions. RT products were diluted with H2O and used for qPCR analysis on an ABI 7300 system (Life Technologies) (technical triplicates). Relative expression levels of target genes were normalized to the genes B2M, PPIA and GAPDH. To knock down the expression of FOXO3 or NRF2, WI-38 cells were transfected, using the RNAiMAX reagents (Life Technologies), with siRNA oligos (at 10 nM final concentration, 10 ml culture medium) for FOXO3 (Life Technologies) or NRF2 (Integrated DNA Technologies) on 10-cm petri dishes for 36 hrs, and then detached and aliquoted onto 96-well (for qPCR analysis) or 384-well plates (for H2O2-stress treatment). ˜24 hrs later, small molecules were introduced and incubated with cells for 24 hrs. Cells were then either processed with the Cells-to-Ct Kit to prepare RT products for qPCR analysis or subjected to H2O2 (700 μM) for 3 hrs and assayed for viability. The knockdown efficiency of FOXO3 or NRF2 was checked at 36 hrs post-transfection and at the end as well. […]
Applicants used siRNA to knock down FOXO3 expression by ˜70% in an attempt to identify whether the activation of these genes depends on activity of FOXO3 and/or NRF2. […] We used siRNA to knock down FOXO3 expression by ˜60% to 70% (FIG. 3; see data in Table 6). […] (Given the caveat that FOXO3 was not fully knocked down, partial dependency was scored when the H2O2-resistance capacity was reduced by at least 25% but less than 50% upon siRNA knockdown). At least for Gr-7A and Gr-7C, which are structurally related, the observed FOXO3-dependency for H2O2-resistance is consistent with their strong effects to induce FOXO3 target genes (Tables 1a-1f, Table 6, & Table 15), including SOD2 and GADD45A.

Data set [1] concerns phosphorylated γH2A.X and TP53BP1. The data set can be described thus: DNA damage marker analysis (immuno-staining). The conditions noted are these: for activity at 10 µM: Homo sapiens, WI-38, 24 h; for P = Potential DNA-damaging / R = Potential DNA damaging: human, 24 h. On the procedure: WI-38 cells were seeded on 96-well plates and cultured for 24 hrs and then incubated with small molecules for another 24 hrs. As the positive control to damage DNA, H2O2 was supplemented at 700 μM final concentration for the last 3 hrs. Cells were washed with phosphate-buffered saline (PBS), fixed with 4% paraformaldehyde and then blocked with 5% normal goat serum (Cell Signaling), plus 0.3% Triton X-100, for 1 hr. Primary antibody cocktail (rabbit anti-phospho-histone γH2A.X (Ser-139), 1:100; anti-phospho-TP53BP1 (Ser-1778), 1:100), prepared in 1% BSA and 0.3% Triton X-100/PBS, was then introduced and incubated overnight at 4 C. Next day, samples were washed with PBS and further incubated with fluorophore-conjugated secondary antibody (1:1,000) for 1 hr in the dark. Samples were then washed and incubated with DAPI dye (Life Technologies) (4 μg/ml final concentration) for the last 10 minutes. Images were collected on an INCell Analyzer 2000 (GE) and analyzed with the Developer software.
WI-38 cells were seeded (˜8,000 cells per well) on 96-well plates and cultured for 24 hrs and then incubated with small molecules for another 24 hrs. Doxorubicin (300 nM, 24 hrs) and H2O2 (700 μM, 3 hrs) were also introduced as the positive controls to damage DNA. Cells were washed with phosphate-buffered saline (PBS), fixed with 4% paraformaldehyde for 30 min and then blocked with 5% normal goat serum (Cell Signaling) and 0.3% Triton X-100 for 1 hr. Primary antibody cocktail (Cell Signaling, rabbit anti-phospho-histone γH2A.X (Ser-139), 1:100; anti-phospho-TP53BP1 (Ser-1778), 1:100) was prepared in PBS with 1% BSA and 0.3% Triton X-100 and incubated overnight at 4° C. Next day, samples were washed with PBS and further incubated with fluorophore-conjugated secondary antibody (1:1,000) for 1 hr in dark. Samples were then washed and incubated with DAPI dye (Life Technologies) (4 μg/ml final concentration) for 30 minutes. Images were collected on the INCell Analyzer 2000 (10× objective) and analyzed with the Developer Toolbox.

Data set [2] has as its system PC12 cells expressing poly(Q)103-Htt-EGFP. The data set can be described thus: Poly(Q) toxicity & viability analysis (cellular model of Huntington's disease). It is filed as cell-based, rat. The conditions noted are these: for Viability of PC12 cells upon induction of toxic poly(Q)103-Htt-EGFP aggregates: 2.5 μM, 5 μM, 10 μM and 20 μM; for Assay 20: Huntington's poly-Q toxicity attenuation: 10 uM, YES/NO; for M = Huntington's poly-Q toxicity attenuation: score; for K = Huntington's poly-Q toxicity attenuation: summary score. On the procedure:
Viability assays were performed as described before (Aiken et al., 2004). PC12 cells that stably express the inducible poly(Q)103-Htt-EGFP were grown in culture. […] Cell viability was analyzed 48 hrs later by measuring ATP content with CellTiter-Glo.
Toxic protein aggregation is a key feature of many age-related neurodegenerative diseases, including Alzheimer's and Huntington's disease (Caughey and Lansbury, 2003; Ross and Poirier, 2004). A number of animal models (Phillips et al., 2009) and cell models (Schlachetzki et al., 2013) have been established to study these diseases. For this purpose, PC12 rat pheochromocytoma cells display neuronal features and produce neurotransmitters and have been used extensively to study neuronal phenotypes, including synaptic transmission and neurological diseases. […] In this model, induced expression of poly(Q)103-Htt-EGFP could lead to the formation of aggregates and exert substantial toxicity in cells.

Setting [3] is: in liquid, wild type, with FuDR, 1.0 × 10^9 bacteria/ml, read-out: relative change of mean lifespan vs control, Trial 1.
Where [4] appears, read: in liquid, wild type, with FuDR, 2.5 × 10^9 bacteria/ml, read-out: relative change of mean lifespan vs control, Trial 2.
Where [5] appears, read: on plate, CF512 temperature-sensitive sterile animals, without FuDR, 2.0 × 10^10 bacteria/ml, read-out: relative change of mean lifespan vs control, Trial 3.
[6] abbreviates: Assay 2(z), 1.0 × 10^9 bacteria/ml, wild type + FuDR (2012 July), read-out: Lifespan assay in liquid.
Setting [7] is: Assay 3(aa), 2.5 × 10^9 bacteria/ml, wild type + FuDR, read-out: Lifespan assay in liquid.
The mark [8] stands for this setting: Assay 4(ab), 2.0 × 10^10 bacteria/ml, CF512 worms, no FuDR, read-out: Lifespan assay on plates.
The mark [9] stands for this setting: read-out: Experiment 1, H2A.X-P DNA damage foci staining (no H2O2 stress treatment), at 10 uM.
Where [10] appears, read: read-out: Experiment 2, H2A.X-P DNA damage foci staining (no H2O2 stress treatment), at 10 uM.
Where [11] appears, read: read-out: Experiment 2, H2A.X-P DNA damage foci staining (under H2O2 stress treatment), at 10 uM.
Setting [12] is: read-out: Experiment 2, TP53BP1-P DNA damage foci staining (no H2O2 stress treatment), at 10 uM.
The mark [13] stands for this setting: read-out: Experiment 2, TP53BP1-P DNA damage foci staining (under H2O2 stress treatment), at 10 uM.

Like-named read-outs stand apart in the source and are kept apart here.

For the compound `NS(=O)(=O)c1ccc(NC(=O)c2ccc([N+](=O)[O-])o2)cc1` [Gr-1A], the ILS at 60 µM with C. elegans (setting [3]) is -1.3%; in the data set with C. elegans (setting [4]), 0.2%; in the data set with C. elegans (setting [5]), 14.2%. Further, the values for the ILS at 66 µM in the data set on C. elegans (setting [6]), in the data set on C. elegans (setting [7]) and in the data set with C. elegans (setting [8]) were -1.3%, 0.2% and 14.2%, respectively. Moreover, the “O = Life span- extending scores in worms” value in the data set with C. elegans came out at 0. In the data set with C. elegans, the “M = Lifespan-extending scores in worms” value was found to be 0. Moreover, the “FOXO3-dependency for H2O2-resistance (experiment 3)” value in the data set with FOXO3 (10 uM, with & without H2O2, FOXO3 knockdown in WI-38 cells, YES = resistance reduced by at least 50%, partial = 25% to 50%) is “No”. For the same compound, the “FOXO3-dependency for H2O2-resistance (experiment 1 & 2)” value with FOXO3 (10 uM, with H2O2, FOXO3 knockdown in WI-38 cells, YES = resistance reduced by at least 50%, partial = 25% to 50%) is reported as “No”. The “I = FOXO3-dependency for H2O2-resistance” value in the data set with FOXO3 (score) and in the data set with FOXO3 (summary score) was 0 each time. The activity at 10 µM in data set [1] (setting [9]) was determined as 196%; in data set [1] (setting [10]), 223%; in data set [1] (setting [11]), 179%; in data set [1] (setting [12]), 411%; in data set [1] (setting [13]), 653%. Besides, the “P = Potential DNA-damaging” value in data set [1] amounted to 1. Also, in data set [1], the “R = Potential DNA damaging” value was 1. In data set [2], the “Viability of PC12 cells upon induction of toxic poly(Q)103-Htt-EGFP aggregates” value is “consistently increased the viability”. Besides, the “Assay 20: Huntington's poly-Q toxicity attenuation” value in data set [2] is “YES”. Besides, in data set [2], the “M = Huntington's poly-Q toxicity attenuation” value was 1. Moreover, the “K = Huntington's poly-Q toxicity attenuation” value in data set [2] is given as 1.

For `O=C(Nc1cc(C(F)(F)F)ccc1Cl)c1ccc([N+](=O)[O-])o1` [Gr-1B], the results for the ILS at 60 µM in the data set on C. elegans (setting [3]), in the data set with C. elegans (setting [4]) and in the data set with C. elegans (setting [5]) were 12.9%, 8% and 15.1%, respectively. The ILS at 66 µM in the data set with C. elegans (setting [6]) amounted to 12.9%; with C. elegans (setting [7]), 8%; with C. elegans (setting [8]) it was 15.1%. Also, in the data set with C. elegans, the “O = Life span- extending scores in worms” value is given as 1 (1 for lifespan extension observed in 2 trials). In addition, in the data set with C. elegans, the “M = Lifespan-extending scores in worms” value is 1 (1 for lifespan extension observed in 2 trials). Further, the “I = FOXO3-dependency for H2O2-resistance” value with FOXO3 (score) and in the data set on FOXO3 (summary score) was 0 each time. For the same compound, the activity at 10 µM in data set [1] (setting [9]) came to 134%; in data set [1] (setting [10]) it was 95.8%; in data set [1] (setting [11]), 118%; in data set [1] (setting [12]) it was 211%; in data set [1] (setting [13]), 137%. Besides, the “P = Potential DNA-damaging” value in data set [1] amounted to 0. Also, the “R = Potential DNA damaging” value in data set [1] is recorded as 0. The “M = Huntington's poly-Q toxicity attenuation” value in data set [2] was 0. Also, the “K = Huntington's poly-Q toxicity attenuation” value in data set [2] is 0.

Turning to `CCc1ccccc1NC(=O)c1ccc([N+](=O)[O-])o1` [Gr-1C], the ILS at 60 µM in the data set with C. elegans (setting [3]) was determined as 14.4%; in the data set on C. elegans (setting [4]) it was 1.7%; in the data set on C. elegans (setting [5]) it was 14.7%. Moreover, the ILS at 66 µM with C. elegans (setting [6]) stood at 14.4%; with C. elegans (setting [7]), 1.7%; in the data set with C. elegans (setting [8]), 14.7%. The “O = Life span- extending scores in worms” value in the data set on C. elegans is 1 (1 for lifespan extension observed in 2 trials). For the same compound, in the data set on C. elegans, the “M = Lifespan-extending scores in worms” value is reported as 1 (1 for lifespan extension observed in 2 trials). Moreover, the “I = FOXO3-dependency for H2O2-resistance” value in the data set with FOXO3 (score) and with FOXO3 (summary score) was 0 throughout. Further, the activity at 10 µM in data set [1] (setting [9]) came out at 217%; in data set [1] (setting [10]) it was 311%; in data set [1] (setting [11]) it was 178%; in data set [1] (setting [12]), 375%; in data set [1] (setting [13]), 552%. Further, in data set [1], the “P = Potential DNA-damaging” value came to 1. In data set [1], the “R = Potential DNA damaging” value is given as 1. Also, the “Viability of PC12 cells upon induction of toxic poly(Q)103-Htt-EGFP aggregates” value in data set [2] is given as “consistently increased the viability”. The “Assay 20: Huntington's poly-Q toxicity attenuation” value in data set [2] is listed as “YES”. Moreover, the “M = Huntington's poly-Q toxicity attenuation” value in data set [2] was determined as 1. Also, the “K = Huntington's poly-Q toxicity attenuation” value in data set [2] was 1.

On to `O=C(Nc1cccc(Cl)c1)c1ccc([N+](=O)[O-])o1` [Gr-1D], for which the ILS at 60 µM with C. elegans (setting [3]) is 18.2%; in the data set on C. elegans (setting [4]), -0.5%; in the data set on C. elegans (setting [5]), 10.5%. Besides, the ILS at 66 µM in the data set with C. elegans (setting [6]) is 18.2%; in the data set on C. elegans (setting [7]), -0.5%; in the data set with C. elegans (setting [8]) it was 10.5%. Also, in the data set with C. elegans, the “O = Life span- extending scores in worms” value is 1 (1 for lifespan extension observed in 2 trials). The “M = Lifespan-extending scores in worms” value with C. elegans is listed as 1 (1 for lifespan extension observed in 2 trials). Moreover, the “I = FOXO3-dependency for H2O2-resistance” value in the data set with FOXO3 (score) and in the data set on FOXO3 (summary score) was 0 each time. Moreover, the activity at 10 µM was 232% in data set [1] (setting [9]); 353% in data set [1] (setting [10]); 164% in data set [1] (setting [11]); 353% in data set [1] (setting [12]); 554% in data set [1] (setting [13]). For the same compound, the “P = Potential DNA-damaging” value in data set [1] came out at 1. In addition, the “R = Potential DNA damaging” value in data set [1] was found to be 1. The “M = Huntington's poly-Q toxicity attenuation” value in data set [2] was determined as 0. In data set [2], the “K = Huntington's poly-Q toxicity attenuation” value came to 0.
